PMC7146544, “Dual Plasmepsin-Targeting Antimalarial Agents Disrupt Multiple Stages of the Malaria Parasite Life Cycle” (Cell Host & Microbe, 2020)

Test system: P. falciparum
Assay: P. falciparum asexual blood-stage growth inhibition (LDH or SYBR Green flow cytometry)
Assay type: cell-based, Plasmodium falciparum
Settings: Plasmodium falciparum, 3D7, 3D7 parasite line, asexual blood stage; read-out: EC50, inhibition of P. falciparum growth
Method: For High Throughput Screening (HTS) of compounds we used the lactate dehydrogenase (LDH) assay to detect parasitemia ([Makler et al., 1993], [Oduola et al., 1997]) formatted in a 384 well assay using an Echo555 (Labcyte). The P. falciparum assay was conducted with minor modifications ([Gamo et al., 2010]). Briefly, an inoculum of parasitized red blood cells at 0.7% parasitemia and 2% hematocrit in RPMI-1640, 5% AlbuMAX, 2% d-sucrose, 0.3% glutamine and 150 μM hypoxanthine was used for the assay. Assay plates (Greiner #781098, 384 well, white, tissue culture treated) were prepared by dispensing 1 μl of compound from master plates at 20 μM (10% DMSO stock) into 9ul pre-dispensed growth media in each well. The parasite inoculum (30 μl) was dispensed into plates containing compounds using a Multidrop Combi dispenser (Thermo Scientific). Final assay volume was 40 μl and final compound concentration was 500 nM. The positive growth control was 0.25% DMSO and the negative growth control was 100 nM chloroquine. Plates were incubated at 37 °C for 72 h in an atmosphere of […]. Following 72 h growth, plates were sealed with parafilm and frozen at −80 °C overnight. Plates were thawed at room temperature for at least 4 h prior to LDH activity being measured. 45 μl of fresh LDH reaction mix (174 mM sodium l-lactate, 214 μM 3-acetyl pyridine adenine dinucleotide (APAD), 270 μM Nitro Blue tetrazolium chloride (NBT), 4.35 U ml-1 diaphorase, 0.7% Tween 20, 100 mM Tris-HCl pH 7.5) was dispensed into each well using a Multidrop Combi dispenser. Plates were shaken to ensure mixing and absorbance at 650 nm was measured in an EnVision (PerkinElmer) plate reader after 30 min of incubation at room temperature. Data were normalized to percent growth inhibition using positive and negative controls and analyzed using Dotmatics 5.3 and Spotfire 7.11.1 (Tibco) software.
All wells were backfilled with DMSO to 45 nL such that this remained constant (0.1% DMSO). The positive growth control was 0.1% DMSO and the negative growth control was 100 nM chloroquine. Parasite inoculum (40 μl) was dispensed into plates containing compounds as described above. All other culture and lactate dehydrogenase (LDH) reaction methods are as described previously ([Makler et al., 1993], [Oduola et al., 1997]).
After 72 h incubation at 37°C each well was fixed at room temperature for 30 min with 50 μL of 0.25% glutaraldehyde (ProSciTech) diluted in PBS. Following centrifugation at 1200 rpm for 1 min, supernatants were discarded and parasites were stained with 50 μL of 5X SYBR Green (Invitrogen) diluted in PBS. 50,000 cells were counted by flow cytometry using a Cell Lab Quanta SC – MPL Flow Cytometer (Beckman Coulter) ([Bacon et al., 2007]). Growth was expressed as a percentage of the parasitemia obtained using a vehicle control. All samples were tested in triplicate. EC50 values were determined using GraphPad Prism.

CCC1(CC)CC(=O)N([C@@H]2CCOc3ccc(C(=O)N[C@H]4CC(C)(C)Oc5ccccc54)cc32)C(=N)N1 [WM382]
EC50: 0.6 nM
